Source: patent US9056891B2, “Synthetic peptide inhibitors of Wnt pathway” (The United States of America, as represented by the …, priority 2010, dated 2015)
*1 amine or outer side, *2 acyl side, *3 side chain or, on linkers, in order; H or OH if unused. Where a SMILES comes first, the peptide text is derived from it. Bridges are numbered along the chain shown (N, C = ends). Where no end group is shown, it is not given here. [ ]: non-standard residue; d: D form. The star is where a group is joined. X1 = CCCCCCCCCCCCC(C)(N[*:1])C(=O)[*:2]; Palmitoyl = CCCCCCCCCCCCCCCC(=O)*; Aib = CC(C)(N)C(=O)O

Experiments:
[1] = tested on: MM cells (tubule formation); assay: MM cell differentiation, co-cultivation with embryonic spinal cord inductor; format: cell-based; conditions: MM cells co-cultivated with embryonic spinal cord
Text: (§1) To determine if the loss of β-catenin affects differentiation, MM cells were co-cultivated with inductor, embryonic spinal cord, and treated with CT-HC-1. In these cultures, tubule formation was unaffected. This finding was supported by semi-quantitative RT-PCR analysis of BIO-induced MM cells in which levels of epithelial markers Lim-1 and E-cadherin were unaltered with CT-HC-1 treatment. […] This observation is consistent with reports describing an antagonistic relationship between canonical and non-canonical Wnt mechanisms (see, e.g., Park et al., Development, 132: 2533-2539 (2007); and Schmidt-Ott et al., Development, 132: 3177-3190 (2007).

[2] = tested on: Lim-1, E-cadherin, Axin-2 expression; assay: Semi-quantitative RT-PCR of marker expression in MM cells; format: cell-based
Text: as §1

SW480 cells = assay: Toxicity (growth inhibition) for SW-480 cells; format: cell-based, human; set-up: unit not given here
Method: (§2) Further optimization and testing of inhibitors was performed using this cell line. Table 5 presents toxicity data for select inhibitors for 4T1 cells and human colon cancer cell line SW-480, wherein GI50 is the concentration providing 50% growth inhibition and TGI is the total growth inhibition.

[3] = tested on: Wnt pathway (TOPflash reporter transcription); assay: TOPflash dual luciferase reporter assay in primary metanephric mesenchyme (MM) cells; format: cell-based; conditions: 10 μM, 30 min pre-treatment, 24 hours
Method: Primary metanephric mesenchyme (MM) cells were transfected with the Amaxa Nucleofector 96-well Shuttle System (Lonza Group Ltd, Basel, Switzerland). Briefly, 1×10^6 cells per transfection were resuspended in 20 μl of 96-well Nucleofector solutions. TOPflash luciferase plasmid (1 μg) and 0.1 μg pRL-TK-renilla plasmids (Promega, Madison, Wis., USA) were mixed with cell suspensions and transferred to the well of a 96-well Nucleocuvette module. Nucleofections were performed according to manufacturer's instructions using program DN-100.
MM cells were pre-treated with or without CT-HC-1 (10 μM) for 30 min, and then exposed to GSK3 inhibitor BIO (500 nM) or Wnt3a conditioned medium (50%) (Wnt3aCM as described in Willert et al., Nature, 423: 448-452 (2003)) for 24 hours. Cells were lysed and assayed for reporter activity using a Dual luciferase assay system (Promega) and a Monolight 3010 Luminometer (Pharmagen, San Diego, Calif., USA).

β-catenin = assay: Levels of total β-catenin in MM cells; format: cell-based
Method: Cells were also evaluated for levels of total β-catenin. In these studies, β-catenin was degraded within 3 hours of treatment with CT-HC-1.

[4] = tested on: HeLa, U3A, RKO, HCT-116, and HT-29 cells; assay: MTT cell number versus concentration (FIG. 1); format: cell-based; conditions: HCT-116, HT-29
Method: (§3) The ability of CT-HC-1 to inhibit growth and to kill cancer cells at different concentrations was further investigated in HeLa, U3A, RKO, HCT-116, and HT-29 cells. The cells were stained with Promega Non-Radioactive Cell Proliferation Assay Kit (MTT) according to the manufacture's protocol. The absorbance of the wells was determined at 544 nm by a FLUOstar/POLARstar Galaxy (BMG Lab Technologies GmbH) Microplate Reader. The assays were performed on control (C) and test (T) cells. Untreated cells were used as a control. Cellular responses were calculated from the data using the following formula: 100×[(T−T0)/(C−T0)] for T>T0 and 100×[(T−T0)/T0] for T<T0. T0 corresponds to cell density at the time of drug addition.

4T1 cells = assay: Toxicity (growth inhibition) for 4T1 cells; format: cell-based, mouse
Method: To identify a mouse model for preclinical development of compounds, mouse cell lines were tested for (1) growth inhibition by the compounds and (2) the levels of constitutive Wnt signaling TCF-reporter activity using transfection of cell with TCF/LEF-responsive firefly luciferase construct. The data further confirmed that sensitivity to compounds correlated well with the levels of canonical Wnt signaling.
Based on the data, mouse breast cancer cell line 4T1 was selected for in vivo testing.
as §2

[5] = tested on: RKO, HT-29, HCT-116, SW-480, and SW-620 cells; assay: Cell viability of colon cancer cells (FIGS. 2A-C); format: cell-based; conditions: increasing concentrations, HT-29, HCT-116, SW-480, SW-620
Method: The concentration (μM) of the peptide inhibitor is indicated on the x-axis and the percent viability is indicated on the y-axis.
A similar experiment was performed using RKO, HT-29, HCT-116, SW-480, and SW-620 cells. Colorectal adenocarcinoma SW-480 and SW-620 cells have truncated APC protein, which—as discussed above—is a common cause of canonical Wnt pathway activation in colon malignancies.

HCT-116 cells = format: cell-based, human; conditions: 48 h
Method: (§4) HeLa, U3A, RKO, HCT-116, and HT-29 cells were exposed to the CT-HC-1, CT-HC-3, CT-HC-5, and CT-HC-8 inhibitors of Example 1 for 48 hours in medium containing 1% bovine fetal serum, and the resulting cell number was evaluated using a MTT assay. Each of these cell lines is relevant to the evaluation of Wnt signaling. Cervical carcinoma HeLa cells overexpress β-catenin (see, e.g., Lee et al., Int. J. Cancer, 124(2): 287-297 (2009); and Lee et al., Gynecol. Oncol., 109(2): 270-274 (2008)). β-catenin is activated in colon carcinoma RKO due to mutation in CDX2 (see, e.g., Dang et al., Oncogene, 20(35): 4884-4890 (2001)). Colon adenocarcinoma HCT116 has elevated mutated β-catenin; however, it was found in the past to be resistant to down regulation of β-catenin (see, e.g., Chan et al., Proc. Natl. Acad. Sci. USA, 99(12): 8265-8270 (2002); and Handeli et al., Mol. Cancer Ther., 7(3): 521-529 (2008)). Colon carcinoma HT-29 has truncated adenomatous polyposis coli (APC) protein, which is a common cause of canonical Wnt pathway activation in colon malignancies. Fibrosarcoma U3A cells are STAT1-negative and have uncharacterized status of Wnt pathway.
as §3

HT-29 cells = format: cell-based; conditions: 48 h
Method: as §4, §3

RKO cells = format: cell-based; conditions: 48 h
Method: as §4, §3

HeLa cells = format: cell-based; conditions: 48 h
Method: as §4, §3

U3A cells = format: cell-based; conditions: 48 h
Method: as §4, §3

4T1 breast cancer = 4T1 breast cancer mouse model; format: in vivo; conditions: 2 mg/kg subcutaneously three times a week, alone, after three injections
Method: CT-HC-11 has been tested in 4T1 breast cancer mouse model at two doses: 10 and 2 mg/kg injected subcutaneously three times a week alone or in combination with weekly gemcitabine (75 mg/kg).

[6] = cells exposed only to peptide, no inductive ligand

CCCCCCCCCCCCCCCC(=O)NCCCC[C@H](N)C(=O)N[C@@H](Cc1ccc(O)cc1)C(=O)N[C@@H](CCCCN)C(=O)N[C@@H](CCCCN)C(=O)N[C@@H](CCCNC(=N)N)C(=O)N[C@@H](CC(C)C)C(=O)N[C@@H](CO)C(=O)N[C@H](C(=O)N[C@@H](CCC(=O)O)C(=O)N[C@@H](CC(C)C)C(=O)N[C@H](C(=O)N[C@@H](CO)C(=O)N[C@@H](CO)C(=O)N[C@@H](CC(C)C)C(=O)N[C@@H](Cc1ccccc1)C(=O)N[C@@H](CCCNC(=N)N)C(=O)O)[C@@H](C)O)C(C)C [CT-HC-1, Pal-ε-KYKKRLSVELTSSLFR] (H-K(Palmitoyl)YKKRLSVELTSSLFR-OH; N-terminus and C-terminus assumed)
tubule formation [1]: unaffected
levels of epithelial markers Lim-1 and E-cadherin ([2]; BIO-induced MM cells): unaltered
Axin-2 expression [2, 6]: decrease
expression of Lim-1 and E-cadherin [2, 6]: enhanced expression
SW480 cells TGI (total growth inhibition) (SW480 cells): 5
BIO-induced transcription (TOPflash reporter) ([3]; BIO 500 nM): completely blocked
Wnt3aCM-induced transcription (TOPflash reporter) ([3]; Wnt3a conditioned medium 50%): completely blocked
time of treatment within which β-catenin was degraded (β-catenin): ≤ 3 h
β-catenin levels 24 hours after treatment (β-catenin; 24 hours): had not recovered
β-catenin levels in presence of proteasomal inhibitor MG132 (β-catenin; with MG132): stabilized
cell number as compared to untreated cells [4]: decreased cell numbers in a concentration dependent manner
4T1 cells TGI (total growth inhibition) (4T1 cells): > 5 µM
cell viability [5]: decreased viability
GI50 (HCT-116 cells): 3.4 ± 0.25 µM
GI50 (HT-29 cells): 1.4 ± 0.05 µM
GI50 (RKO cells): 1.3 ± 0.05 µM
GI50 (HeLa cells): 0.63 ± 0.025 µM
GI50 (U3A cells): 0.6 ± 0.04 µM

CCCCCCCCCCCCCCCC(=O)NCCCC[C@H](N)C(=O)N[C@@H](Cc1ccc(O)cc1)C(=O)N[C@@H](CCCCN)C(=O)N[C@@H](CCCCN)C(=O)N[C@@H](CCCNC(=N)N)C(=O)N[C@@H](CC(C)C)C(=O)N[C@@H](CO)C(=O)N[C@H](C(=O)N[C@@H](CCC(N)=O)C(=O)N[C@@H](CC(C)C)C(=O)N[C@H](C(=O)N[C@@H](CO)C(=O)N[C@@H](CO)C(=O)N[C@@H](CC(C)C)C(=O)N[C@@H](Cc1ccccc1)C(=O)N[C@@H](CCCNC(=N)N)C(=O)O)[C@@H](C)O)C(C)C [CT-HC-3, Pal-ε-KYKKRLSVQLTSSLFR] (H-K(Palmitoyl)YKKRLSVQLTSSLFR-OH; N-terminus and C-terminus assumed)
SW480 cells TGI (total growth inhibition) (SW480 cells): 0.5
4T1 cells TGI (total growth inhibition) (4T1 cells): > 5 µM
cell viability [5]: decreased viability
GI50 (HCT-116 cells): 4 ± 0.3 µM
GI50 (HT-29 cells): 2.8 ± 0.1 µM
GI50 (RKO cells): 1.8 ± 0.15 µM
GI50 (HeLa cells): 0.8 ± 0.08 µM
GI50 (U3A cells): 0.65 ± 0.045 µM

CCCCCCCCCCCCC(C)(N)C(=O)N[C@@H](Cc1ccc(O)cc1)C(=O)N[C@@H](CCCCN)C(=O)N[C@@H](CCCCN)C(=O)N[C@@H](CCCNC(=N)N)C(=O)N[C@@H](CC(C)C)C(=O)N[C@@H](CO)C(=O)N[C@H](C(=O)N[C@@H](CCC(=O)O)C(=O)N[C@@H](CC(C)C)C(=O)N[C@H](C(=O)N[C@@H](CO)C(=O)N[C@@H](CO)C(=O)N[C@@H](CC(C)C)C(=O)N[C@@H](Cc1ccccc1)C(=O)N[C@@H](CCCNC(=N)N)C(=O)O)[C@@H](C)O)C(C)C (stereo partly shown) [CT-HC-8, Doa-YKKRLSVELTSSLFR] (H-[X1]YKKRLSVELTSSLFR-OH; N-terminus and C-terminus assumed)
SW480 cells TGI (total growth inhibition) (SW480 cells): 0.4
4T1 cells TGI (total growth inhibition) (4T1 cells): > 5 µM
cell viability [5]: decreased viability
GI50 (HCT-116 cells): > 5 µM
GI50 (HT-29 cells): > 5 µM
GI50 (RKO cells): > 5 µM
GI50 (HeLa cells): 3.2 ± 0.4 µM
GI50 (U3A cells): > 5 µM

Ac-YKKRLS+ELT+SLFR (Ac-YKKRLSXELTXSLFR; staple 7-11; not fully specified (residues 7, 11); printed as Ac-YKKRLS+ELT+SLFR) [CT-HC-9]
SW480 cells TGI (total growth inhibition) (SW480 cells): >5
4T1 cells TGI (total growth inhibition) (4T1 cells): > 5 µM

Cap-TRFLSSTLQVSLRKK-NH2 [CT-HC-22]
4T1 cells TGI (total growth inhibition) (4T1 cells): > 5 µM

Lau-TRFLSSTLQVSLRKK-NH2 [CT-HC-23]
4T1 cells TGI (total growth inhibition) (4T1 cells): 3.5 µM

Pal-Aib-TRFLSSTLQVSLRKK-NH2 [CT-HC-11]
4T1 cells TGI (total growth inhibition) (4T1 cells): 3 µM
tumor volume (4T1 breast cancer): significant reduction in tumor volume

Pal-Aib-YKKRLSVELTSSLFR (Palmitoyl-[Aib]YKKRLSVELTSSLFR) [CT-HC-13]
4T1 cells TGI (total growth inhibition) (4T1 cells): > 5 µM

Pal-Aib-YKKRLSVQLTSSLFR (Palmitoyl-[Aib]YKKRLSVQLTSSLFR) [CT-HC-19]
4T1 cells TGI (total growth inhibition) (4T1 cells): > 5 µM

Pal-NKPQDYKKRLSVELTSSLFR [CT-HC-2]
SW480 cells TGI (total growth inhibition) (SW480 cells): >5
4T1 cells TGI (total growth inhibition) (4T1 cells): > 5 µM

Pal-RFLSSTLQVSLRKK-NH2 [CT-HC-20]
4T1 cells TGI (total growth inhibition) (4T1 cells): > 5 µM

Pal-TRFLSSTLEVSLRKKY-NH2 [CT-HC-10]
SW480 cells TGI (total growth inhibition) (SW480 cells): 2.2
4T1 cells TGI (total growth inhibition) (4T1 cells): 2 µM

Pal-TRFLSSTLQVSLRKK-NH2 [CT-HC-15]
4T1 cells TGI (total growth inhibition) (4T1 cells): 3.6 µM

Pal-YKKRLSVELTSSLFR (Palmitoyl-YKKRLSVELTSSLFR) [CT-HC-12]
SW480 cells TGI (total growth inhibition) (SW480 cells): >5
4T1 cells TGI (total growth inhibition) (4T1 cells): > 5 µM

Pal-YKKRLSVELTSSLFRTEPMAW (Palmitoyl-YKKRLSVELTSSLFRTEPMAW) [CT-HC-16]
SW480 cells TGI (total growth inhibition) (SW480 cells): >5
4T1 cells TGI (total growth inhibition) (4T1 cells): > 5 µM
